Source: article PMC6059979 (European journal of medicinal chemistry, 2018)
Peptide text beside a SMILES is read from it. * marks the point of attachment. Palmitoyl = CCCCCCCCCCCCCCCC(=O)*

Key:
Type in all cases: cell-based
[1] = tested on: Escherichia coli (E. coli, JM109); details: JM109, 18 h
[2] = tested on: Methicillin Resistant Staphylococcus epidermidis (MRSE, RP62A); details: Methicillin Resistant (, RP62A, 18 h)
[3] = tested on: Methicillin Resistant Staphylococcus aureus (MRSA, ATCC 33591); details: ATCC 33591, 18 h
[4] = tested on: Vancomycin Resistant Enterococcus faecalis (E. faecalis, ATCC 700802); details: ATCC 700802, 18 h
[5] = tested on: Klebsiella pneumoniae (K. pneumoniae, ATCC 13383); details: ATCC 13383, 18 h

CCCCCCCCCCCCCCCC(=O)N[C@@H](CCCCN)C(=O)N[C@@H](Cc1ccccc1)C(=O)N[C@@H](CCCCN)C(N)=O [C16-K-F-K] (Palmitoyl-Lys-Phe-Lys-NH2)
>25 µg/mL: MIC E. coli [1] | MIC MRSE [2] | MIC MRSA [3] | MIC E. faecalis [4] | MIC K. pneumoniae [5]
